Data reported in a melting point compilation (Tetko et al.; mined from patent text by program, amines drawn as free bases though some values may be those of a salt).

Structure (SMILES) | melting point
CNC(=O)CCCCCCCCn1ccnc1 | 64 to 66 °C
C=CCNC(=O)C=C(C)N | 143 to 144 °C
O=C1CCc2ccc(OCCCCN3CCN(c4cccc5cc(Cl)ccc45)CC3)nc2N1 | 215 to 216 °C
CCn1cc(C(=O)O)c(=O)c2cc(F)c(N3CCNC(CN(C)C)C3)cc21 (centres undefined) | 148 to 150 °C
CCCCCCc1ccc2c(c1)[nH]c1cc(COC(c3ccccc3)(c3ccccc3)c3ccccc3)ccc12 | 155 to 156 °C
CCNc1ccc(C2(C)C(=O)Nc3cc(Cl)cc(Cl)c3C2=O)cc1 (centres undefined) | 197 to 198 °C
CC(C)(C)OC(=O)N1CCN(c2ccc(N3CC(CN=[N+]=[N-])OC3=O)cc2F)CC1 (centres undefined) | 101 to 104 °C
O=C(CCCN1CCCCC1)c1ccc2oc3ccc(C(=O)CCCN4CCCCC4)cc3c(=O)c2c1 | 93 to 95 °C
C=CCCOc1ccc(C[C@H](NC(=O)OC(C)(C)C)C(=O)N[C@@H](CC(C)C)C(=O)N[C@@H](CC=C)C(=O)OC)cc1 | 166 to 168 °C
CC(C)(C)OC(=O)CCc1cc(S(C)(=O)=O)cc(-c2nc(=O)c3ccc(Cl)cc3s2)n1 | 184 °C
Cc1nc2ccc(Cl)cc2s1 | 85 to 86 °C
CCCC1(CCC)C(=O)N(C(C)(C)C)CC(C)(C)N1OC(C)(C)C#N | 85 to 87 °C
CCN1CCC(n2nnnc2C2(c3cc(C(C)C)ccc3OC)C=CC(O)=CC2O)CC1 (centres undefined) | 144 to 147 °C
O=c1oc2cc(O)ccc2c2c1CCCC2 | 200 to 202 °C
CCNC1=NS(=O)(=O)c2cc(Cl)sc2N1 | 274 to 275 °C
NC1=NC(=O)N(CC2CC2)CC1Br (centres undefined) | 139 to 143 °C
COC1=C(OC)C(=O)C(c2cc(C(C)(C)C)c(O)c(C(C)(C)C)c2)=C(C)C1=O | 147 to 148 °C
CCOCc1nc2c(N)nc3ccccc3c2n1CCCc1cc(-c2cccnc2)no1 | 199 to 200 °C
COc1c(C=NO)c(=O)n(C)c(=O)n1C | 127 to 128 °C
CC(CCc1cccc(Cl)c1)NC(=O)n1nc(N(C)C)n(N)c1=O (centres undefined) | 74 °C

Structure (SMILES) | melting point
CC(C)(CO)Nc1nc2c(s1)CCc1cc(C#N)ccc1-2 | 121 to 123 °C
CN1C2CCC1CC(N(C)S(=O)(=O)c1ccc(Nc3nccc(Nc4ccc(F)cc4)n3)cc1)C2 (centres undefined) | 184 °C
O=C(Nc1cccc(O)c1)C(CS)C(F)(F)F (centres undefined) | 147 to 151 °C
CC(OCCCNC(=O)c1coc(-c2ccc(/C(=C\CCCCC(=O)O)c3cccnc3)cc2)n1)C1CCCCC1 (centres undefined) | 80 to 85 °C
N#Cc1ccc(-c2cncc(OC3SCC(O)C(O)C3O)c2)cc1F (centres undefined) | 214 °C
CCOP(=O)(OCC)C(C)(C)NC(=O)c1cccc([N+](=O)[O-])c1 | 95 to 96 °C
CN(C(=O)c1cc2ccccc2[nH]1)C1N=C(c2ccccc2)c2ccccc2NC1=O (racemic) | 287 to 288 °C
CCNC(=O)c1ccc(N2CCN(Cc3cnc4c(c3)NC(=O)[C@@H]3CSCCN43)CC2)cc1 | 289 °C
CCCCN1C(=O)C2=C(c3ccc(Cl)cc3)N(CCCC)C(=O)C2=C1c1ccc(Cl)cc1 | 176 to 177 °C
O=C(O)COc1cc(Cl)ccc1C(=O)NCc1cc(F)cc(C(F)(F)F)c1 | 160 to 162 °C
CC[C@@H]1NC(=O)C[C@]1(C)O | 87 to 111 °C
CCOC(=O)C(NC(C)=O)(C(=O)OCC)C1=Nc2ccc(Cl)cc2C(c2ccccc2F)=NC1 | 150 to 180 °C
CC(=O)Oc1cc(OCCF)ccc1C(=O)O | 126 to 127 °C
COc1cc2c(cc1C(C)=O)CCCC2C (centres undefined) | 48 to 50 °C
CC1=C(C(=O)OCCCl)C(c2cccc([N+](=O)[O-])c2)C(C(=O)OCC(C)C)=C(C)N1 (centres undefined) | 150 to 153 °C
C=CC[C@@H]1C(=O)OC[C@@H]1O[Si](C)(C)C(C)(C)C | 48 °C
CCC(=O)c1ccc(=O)[nH]c1C=CN(C)C | 204 to 206 °C
FC(F)(F)c1nnc(Cl)c2cc3ccccn3c12 | 245 to 246 °C
NC(CC(=O)O)c1ccccc1[N+](=O)[O-] (centres undefined) | 222 °C
c1ccc2c(c1)Cc1ccccc1N1CCNCC21 (centres undefined) | 128 to 130 °C

Other lines, results leading:

melting point | Structure (SMILES)
86 to 89.5 °C | COc1ccc(CC(=O)N2C=CC(C)(C)C=C2)cc1OC
50 to 51 °C | CCOC(=O)C(Cc1ccc(C(F)(F)F)cc1)C(=O)c1cccc(F)c1 (centres undefined)
198 to 199 °C | COc1ccc(Oc2cccc(-c3nnc(Nc4ccc(Cl)c(Cl)c4)s3)c2)cc1
154 to 155 °C | CCc1nc(/C=C/c2cn(-c3ccccc3)nc2OCc2ccc(OCc3nc(-c4ccc(C(=O)O)o4)oc3C)c(OC)c2)cs1
215 to 217 °C | COc1ccc(C(=O)NCc2ccc3c(c2)C(=O)N(C2CCC(=O)NC2=O)C3=O)cc1 (centres undefined)
85 °C | Cc1cc(C)nc(NC(=O)Cc2cccn2C)c1
> 230 °C | CCc1ccc(NC(=O)c2ccccc2CN2C(=O)C3(COc4cc5c(cc43)CCO5)c3ccccc32)cc1 (centres undefined)
187 to 189 °C | CC(=O)OCCc1nc2c(N)nc3ccccc3c2n1CC(C)C
154 to 155 °C | FC(F)(F)c1ccc(-c2ncc(-c3cccs3)s2)cc1
320 to 322 °C | NC(=O)c1ccc(-c2nn(-c3ccc(C(=O)O)cc3)c3ccc([N+](=O)[O-])cc23)cc1
88 to 89 °C | CN(C(=O)COc1cc(C(F)(F)C(F)(F)F)no1)c1ccccc1
175 to 177 °C | O=C1N(Cc2cccnc2)c2ccccc2C12COc1cc(F)c(F)cc12 (centres undefined)
255 to 258 °C | Nc1ccc(S(=O)(=O)c2cc(-c3ccccc3)nc(N3CCCC3)c2)cc1
210 to 230 °C | O=C(O)/C=C\C(=O)Nc1ccc2c(=O)n3c(nc2c1)C(=Cc1ccccc1)CC3
68 to 70 °C | N#Cc1ccc(OCc2ccsc2)cc1OC(C(=O)O)c1ccccc1Cl (racemic)
110 °C | CCOc1c(CCl)c(CCl)c(OCC)c2ccccc12
214 to 217 °C | O=C(Nc1ccc2cc(CN3CCCC3)ccc2c1)c1ccc(-c2ccc(Cl)cc2)cc1
135 °C | CNC(=S)NCc1cc(-c2ccc(Cl)cc2)no1
149 to 150 °C | COc1cc(C)c2c(c1)C(C(=O)O)=CCC2
271 to 273 °C | Cc1ccc(CC2CCN(CCOc3ccc4c(c3)=NC(=S)N=4)CC2)cc1

melting point | Structure (SMILES)
67 to 68 °C | CCCCCCCCCCCCCCOc1ccc(COC(=O)NCc2ccccn2)cc1
164 to 166 °C | Cc1ccc(CC2CCN(CCOc3ccc4cc(O)ccc4c3)CC2)cc1
205 to 206 °C | Cc1sc(C(N)=O)c2c1-c1c(cnn1Cc1ccccc1)CC2
166 to 168 °C | CCOC(=O)c1c(C)oc2cc(N(C(C)=O)S(C)(=O)=O)c(Oc3ccccc3)cc2c1=O
89 to 91 °C | CCOc1ccc(CCCOc2c(CC(=O)O)cccc2OC)c(Oc2ccc(Cl)cc2Cl)n1
132 to 135 °C | CN(C)CCC1CCc2cc(OCc3ccc(O)cc3)ccc2C1 (centres undefined)
150 to 151 °C | COc1cc(C2(O)CCOCC2)ccc1OCc1ccc2ccccc2c1
138 to 140 °C | CCN(CC(OC)OC)C(=O)Nc1ccc(C(O)(C(F)(F)F)C(F)(F)F)cc1
219 to 220 °C | Cc1c(C(C)(C)C(=O)O)nc2ccc(NCCCN3CCC(OC(c4ccccc4)c4ccccc4)CC3)nn12
84.5 to 86.5 °C | COc1ccc(C(=S)Nc2ccccc2OC)cc1
142 to 143 °C | O=c1c(N2CCNCC2)nc2ccc(F)cc2n1-c1ccccc1
193 to 194 °C | CN(C)C1N(C)C(=O)NC(=O)N1c1cc(OCc2ccccc2)c(Cl)cc1F (centres undefined)
186 to 189 °C | O[C@H](COc1cccc2[nH]ccc12)CN1CCC(c2c[nH]c3c(Cl)cccc23)CC1
156 to 168 °C | Nc1nc2c(ncn2CCC(CO)COC(=O)c2ccccc2)c(=O)[nH]1 (centres undefined)
247 to 248 °C | O=C1NC(=O)C(Cc2ccc(OCc3nc4ncccc4[nH]3)cc2)S1 (centres undefined)
145 °C | COc1cc(Nc2nccc(-c3cccc(Br)c3)n2)cc(OC)c1OC
170 to 173 °C | Cc1ccc([N+](=O)[O-])cc1Nc1cc(-c2cccnc2)ccn1
144 to 146 °C | COc1cc(C(=O)CCc2ccccc2)c2c(c1OC)C(=O)CC2
303 to 305 °C | Cc1nn(-c2ccc(C(=N)N)cc2)c(=O)n1-c1ccc(CCC(=O)O)cc1
127 to 131 °C | Cn1cc(Oc2ccccc2)c(=S)c(-c2cccc(C(F)(F)F)c2)c1

melting point | Structure (SMILES)
220 °C | O=C(N[C@H]1CC[C@H](CCN2CCN(c3nccc4c3OCC4)CC2)CC1)c1ccc(-c2ccccc2)cc1
187 to 188 °C | COc1ccnc(Cl)c1NS(=O)(=O)c1nc2cc(F)nc(OC)n2n1
169 to 170 °C | COC(=O)COc1ccc(C(=O)NN(C)C(=O)c2ccc(C(N)=S)cc2)cc1
162 to 163 °C | Nc1ccc(CC(=O)Nc2ccc(Nc3ccccc3)cc2)cc1
205 to 207 °C | O=C(O)c1oc(-c2ccccc2Cl)cc(=O)c1Br
86 to 87 °C | Cc1oc(-c2ccccc2)nc1COc1ccc(CCl)cn1
192 to 194 °C | CCOC(=O)N1C(=O)NC(=O)C12C(=O)N(Cc1ccc(Cl)c(Cl)c1)c1ccccc12 (centres undefined)
107 to 108 °C | COc1cc(COc2nn(-c3ccccc3)cc2/C=C/P(=O)(OC)OC)ccc1OCc1nc(-c2ccco2)oc1C
156 °C | Cc1ccc(O)c(Cn2c(N)nc3ccc(CNc4cccc(OC(F)(F)F)c4)cc32)n1
93 to 95 °C | CC(C)NC[C@H](O)COc1ccc(OCc2ccccc2)cc1
180 to 182 °C | Cn1ncc2c1-c1c(Oc3ccc4c(c3)OCO4)sc(C(=O)c3cccnc3)c1CC2
144 to 147 °C | CCOC(=O)Nc1cc(OC(=O)OC)c(Cl)cc1F
170 to 172 °C | O=C(O)COc1ccc(SCCc2ccc(-c3ccc(C(F)(F)F)cc3)cc2)c2c1CCC2
141 to 143 °C | O=C(NC(CO)CO)c1ccccc1-c1ccc(C(F)(F)F)cc1
149 °C | CC(C)(Sc1ccc2c(-c3ccccc3F)noc2c1Cl)C(=O)O
85 to 87 °C | CCc1onc(-c2ccccc2)c1-c1ccccc1
46 to 48 °C | COc1ccc(Cl)c2c1CCCC2=O
155 to 159 °C | CC(C)(C)NC(=O)c1ccc2ccccc2c1
159 to 161 °C | Nc1n[nH]cc1S(=O)(=O)c1ccccc1
